No end group written: not given here.
Columns and labels:
[1] = target: T1, extracellular domain of human PD-L1 (hPD-L1) (Homo sapiens, UniProt Q9NZQ7); assay: BIACORE SPR binding to immobilized rhPD-L1; conditions: 1 μM peptide; for SPR response of peptide binding to immobilized rhPD-L1: 1 min at 10 μl/min
T1 construct: Recombinant hPD-L1 ectodomain was immobilized onto the gold surface of a CM5 sensor chip
Protocol: To test the activity of all the selected peptides, surface plasmon resonance (SPR) spectroscopy (BIACORE™ T200, at […]) was used to measure their binding affinities to the extracellular domain of human PD-L1 (hPD-L1). Recombinant hPD-L1 ectodomain was immobilized onto the gold surface of a CM5 sensor chip by direct amine coupling.
(§1) 1 μM BSA was used as the negative control. The chip was regenerated by 10 mM Glycine-HCl, pH 2.5(FIG. 3E).
(§2) 1 μM of various PD-1 peptides were injected over the chip for 1 min at 10 μl/min followed by 1 min dissociation and then 1 min regeneration with 10 mM Glycine-HCl, pH 2.5 for each run.

[2] = system: Nivolumab; assay: BIACORE SPR binding to immobilized Nivolumab; conditions: 1 μM peptide; for SPR response of peptide binding to immobilized Nivolumab: 1 min at 10 μl/min
Protocol: as §1, §2

[3] = system: murine colon carcinoma CT26 tumor cells; assay: CT26 tumor challenge in Balb/c mice immunized with PD-1 constructs; type: in vivo; conditions: for inhibition of tumor growth: Day 14, FIG. 15; for median terminal tumor weight: end of study; for median terminal tumor weight / median tumor size LWH, Day 19 / median tumor size LWW, Day 19 / median tumor size LWH, Day 14 / median tumor size LWW, Day 14: 5 mice/group; for difference in tumor size distribution versus controls: exact Wilcoxon rank-sum test, two-sided, unadjusted; for median tumor size LWH, Day 14: ½*length*width*height; for median tumor size LWW, Day 14: ½*length*width*width
Protocol: Immunocompetent Balb/c mice of 6-8 weeks of age were purchased from Charles River Laboratories, Wilmington, Mass. and housed in The Ohio State University's University Laboratory Animal Resources (ULAR) facilitates. Isoflurane was used to anaesthetize the animals before cells injection and termination. Pre-immune sera samples were taken from the mice then they were immunized with 100 μg of peptide emulsified in Montanide ISA 720 (Seppic, Paris, France) and nor-MDP adjuvant (N-acetyl-glucosamine-3 yl-acetyl L-alanyl-D-isoglutamine). Mice received booster immunizations 3 and 6 weeks after the first. Several test sera samples were taken from the mice (FIG. 8).
10 days after the second boost, mice were inoculated with […] murine colon carcinoma CT26 tumor cells subcutaneous on the right flank. Tumor growth was monitored three times a week and sera samples were taken weekly and upon sacrifice of the animal. Control mice on day 0 were engrated with 1×10^5 CT26 tumor cells subcutaneous and received. The animals received 150 μg injections of anti-mouse antibodies directed against PD-1. Mice were monitored and scored for the formation of palpable tumors twice weekly and sacrificed if tumors became necrotic or exceeded the predetermined size of 2,000 mm3. Tumor diameters were measured twice a week. Tumor size was calculated according to the formula: V=[(length ×width2)/2]. Tumor volumes were measured in cubic millimeters with calipers and calculated with the following formula: A×B2×0.5, where A is the largest diameter, and B is the smallest diameter. All experiments were performed in accordance with the U.S. Public Health Service Policy on Humane Care and Use of Laboratory Animals and approved by the Ohio State University Institutional Animals Care and Use Committee and detailed in the accepted protocol
To assess performance of 4 different vaccine treatments on tumor growth, tumor size was measured periodically in mice, and the results were compared to those of positive and negative controls. There were 5 mice in each treatment group, each receiving the assigned MVF-peptide and then being inoculated with 1e5 CT26 (colon) tumor cells 10 days after the final boost of the treatment. Day 14 was considered the primary time point of interest, as the investigators believed waiting until day 19 allowed the tumors too much time to grow, resulting in similar sizes at that point of the experiment. Tumor size was measured in three ways: LWW (½*length*width*width) at all time points, LWH (½*length*width*height) at all time points, and terminal tumor weight at the end of the study. The mice treated with MVF-PD-a(45), group C, were sacrificed before day 19 due to the death of one mouse, so the comparisons can only be made between tumor size at day 14. Tumor size is in units of mm3 for LWW and LWH and grams for terminal tumor weight.
Due to small sample sizes in each group and inability to assume normality, the exact Wilcoxon rank-sum test was used to check for systematic differences between the distributions of tumor size at times 14 days and 19 days (FIGS. 12A-D and Tables 7-10). P-values given are for test comparing that column's control to the respective treatment, and are two-sided to account for the possibility of tumor size being systematically larger or smaller between treatment and control. As this is preliminary data, the p-values are not adjusted for multiple comparisons. Overall, there were few instances of significant differences between the distributions of a control and a treatment.
Immunocompetent Balb/c mice (5 mice/gp) of 6-8 weeks of age were immunized with 100 μg of peptide emulsified in Montanide ISA 720 (Seppic, Paris, France) and nor-MDP adjuvant (N-acetyl-glucosamine-3 yl-acetyl L-alanyl-D-isoglutamine). […]

[4] = system: CD4+CD25+FoxP3+ Tregs; assay: Immune-profiling of T cells in spleen and tumor by flow cytometry; type: in vivo, Balb/c mice
Protocol: CD4 and CD8 cells were determined by flow cytometry (gated on CD45+CD3+ cells). Foxp3+CD25+CD4 T regulatory cells were determined by intracellular staining. All CD4 and CD8 T cells were gated on CD45+CD3+ cells. Tregs were gated on CD45+CD3+CD4+ cells. Group A=control peptide, Group B=32-50; Group C=45-64; Group D=73-90; Group E=92-110; Group F=α-mouse PD-1 (positive control).
The tumor and tumor draining lymph nodes were collected for subsequent FACS analysis to study the immune response in mice. Cells suspensions were prepared from tissues either by mechanistic dissociation or by enzymatic digestion. The stained cells were analyzed with a LSR II flow cytometer (BD Biosciences) equipped with 3 excitation lasers at wavelengths 405, 488 and 633 nm. CD8+ T cells and CD4+CD25+ T cells from tumor leucocytes were purified either on a MACS column or FACSAria.
Flow cytometric analysis was performed to evaluate the expression of surface markers (CD45, CD3, CD4, CD8 and CD25) and transcription factor FoxP3 in splenocytes and tumor infiltrating T cells. Briefly, spleens were removed from mice and pressed through cell strainers, followed by a short incubation with red blood cells lysis buffer to lyse the red blood cells. Cells were then collected, washed, and resuspended in staining buffer (1% BSA in PBS). Similarly, tumors were removed from mice and pressed through cell strainers, followed by one wash with 37% percoll. The tumor cells were then washed with PBS and resuspended in staining buffer. The splenocytes and tumor cells were incubated with mAbs to the cell-surface markers for 30 min at 4° C. After washing twice with staining buffer, cells were fixed and permeabilized using Cytofix/Cytoperm solution for 60 min at 4° C. Cells were stained for FoxP3 for 30 min at 4° C. 80,000-100,000 live cell events were acquired on a FACSCanto (BD) and analyzed using FlowJo software (Tree Star, Inc.). To differentiate infiltrating cells from tumor cells, the tumor cells were first gated on CD45+ cells. Then the CD3+CD4+ and CD3+CD8+ cells were analyzed. Tregs were represented by CD4+CD25+FoxP3+ cells. […] Group E had the lowest Treg.

[5] = system: human IgG; assay: BIACORE SPR binding to immobilized human IgG; conditions: 1 μM injected 3 min at 10 μl/min
Protocol: 126. […] 1 μM BSA was used as the negative control. The chip was regenerated by 10 mM Glycine-HCl, pH 2.5(FIG. 3E).

T1 sequence (Q9NZQ7 19-238 limits assumed): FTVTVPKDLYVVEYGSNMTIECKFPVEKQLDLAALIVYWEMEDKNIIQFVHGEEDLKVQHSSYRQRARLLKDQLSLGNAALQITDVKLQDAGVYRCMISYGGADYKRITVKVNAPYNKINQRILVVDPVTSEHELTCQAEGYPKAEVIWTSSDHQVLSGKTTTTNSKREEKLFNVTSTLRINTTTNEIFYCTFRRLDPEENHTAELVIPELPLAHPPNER

CH3CONH-DFHMSVVRARRNDSGTYL-CONH2 (Ac-DFHMSVVRARRNDSGTYL-NH2) [AC-PD-1 (73-90)]
binding to immobilized rhPD-L1 (in words) [1]: bind | binding to immobilized Nivolumab (in words) [2]: bind

CH3CONH-GAISLAPKAQIKESLRAEL-CONH2 (Ac-GAISLAPKAQIKESLRAEL-NH2) [AC-PD-1 (92-110)]
binding to immobilized rhPD-L1 (in words) [1]: bind | binding to immobilized Nivolumab (in words) [2]: bind

CH3CONH-KLAAFPEDRSQPGQDCRFR-CONH2 (Ac-KLAAFPEDRSQPGQDCRFR-NH2) [AC-PD-1 (45-64)]
binding to immobilized rhPD-L1 (in words) [1]: bind | binding to immobilized Nivolumab (in words) [2]: bind

H2N-DFHMSVVRARRNDSGTYL-CONH2 (H-DFHMSVVRARRNDSGTYL-NH2) [PD-1 (73-90)]
binding to immobilized rhPD-L1 (in words) [1]: much stronger binding | binding to immobilized Nivolumab (in words) [2]: much stronger binding

H2N-KLAAFPEDRSQPGQDCRFR-CONH2 (H-KLAAFPEDRSQPGQDCRFR-NH2) [PD-1 (45-64)]
binding to immobilized rhPD-L1 (in words) [1]: second stronger binder | binding to immobilized Nivolumab (in words) [2]: second stronger binder

KLLSLIKGVIVHRLEGVE-GPSL-DFHMSVVRARRNDSGTYL-CONH2 (KLLSLIKGVIVHRLEGVEGPSLDFHMSVVRARRNDSGTYL-NH2) [MVF-PD-1 (73-90)]
inhibition of tumor growth [3]: not inhibitory | median terminal tumor weight [3]: 0.93 grams | difference in tumor size distribution versus controls [3]: no significant differences | median tumor size LWH, Day 19 [3]: 768 mm3 | median tumor size LWW, Day 19 [3]: 968 mm3 | median tumor size LWH, Day 14 [3]: 346.5 mm3 | median tumor size LWW, Day 14 [3]: 405 mm3 | binding to immobilized rhPD-L1 (in words) [1]: bind | SPR response of peptide binding to immobilized rhPD-L1 [1]: around 110 RU | binding to immobilized Nivolumab (in words) [2]: bind | SPR response of peptide binding to immobilized Nivolumab [2]: 1000 RU

KLLSLIKGVIVHRLEGVE-GPSL-KLAAFPEDRSQPGQDCRFR-CONH2 (KLLSLIKGVIVHRLEGVEGPSLKLAAFPEDRSQPGQDCRFR-NH2) [MVF-PD-1 (45-64)]
Treg population in spleen compared to Group A (negative control) ([4]; splenocytes, FIG. 10A): increased Treg population | Tregs in tumor ([4]; tumor infiltrating cells, FIG. 10B): increased Treg development in tumor microenvironment | inhibition of tumor growth [3]: not inhibitory | difference in tumor size distribution versus controls [3]: no significant differences | median tumor size LWH, Day 14 [3]: 448 mm3 | median tumor size LWW, Day 14 [3]: 550 mm3 | binding to immobilized rhPD-L1 (in words) [1]: bind | SPR response of peptide binding to immobilized rhPD-L1 [1]: around 110 RU

KLLSLIKGVIVHRLEGVE-GPSL-VLNWYRMSPSNQTDKLAAF-CONH2 (KLLSLIKGVIVHRLEGVEGPSLVLNWYRMSPSNQTDKLAAF-NH2) [MVF-PD-1 (32-50)]
median terminal tumor weight [3]: 0.92 grams | difference in tumor size distribution versus controls [3]: no significant differences | median tumor size LWH, Day 19 [3]: 900 mm3 | median tumor size LWW, Day 19 [3]: 1080 mm3 | median tumor size LWH, Day 14 [3]: 420 mm3 | median tumor size LWW, Day 14 [3]: 486 mm3 | SPR response of peptide binding to immobilized Nivolumab [2]: 20 RU

rhPD-1: recombinant human PD-1 (hPD-1) ectodomain used to validate the sensor chip
SPR response on immobilized human IgG (chip validation) [5]: didn't show any binding signal
